The results in this text go back to article PMC4102417 (PLoS Neglected Tropical Diseases, 2014).

Where a name gives a salt, the structure may show the parent alone. Read-outs that look alike come from different tables or passages of the source.

The test system of one assay is 3T3 fibroblast cells. Briefly: cells. Format: cell-based, murine. As to conditions: for activity at 10 µM: Mus musculus, NIH3T3, 72 h, read-out: Mammalian (3T3) cell % growth at 10 uM.
Assay [1] deals with T. cruzi (Tulahuen strain). Nature of the assay: microbe, parasite or virus in culture. Format: cell-based, Trypanosoma cruzi. The note with it: for activity at 10 µM: 120 h, read-out: T. cruzi % growth @ 10 uM (Amastigotes); for EC50: read-out: T. cruzi EC50. How it is done: Compounds were tested against T. cruzi (Tulahuen strain) stably expressing the beta-galactosidase gene as previously described. […] Fibroblasts were plated at a density of 2×10^3 per well in 96 well tissue culture plates. After 24 hours of incubation, 1×10^4 trypomastigotes/well were added to the fibroblasts and incubated for 4 hours before addition of the test compounds from the Spectrum Collection (10 µM final concentration). Cultures were incubated at 37°C for 5 days, then developed with chlorophenol red β-D-galactopyranoside as previously described. The percent inhibition is reported with standard deviation of the mean. […] Z-prime values were calculated for each 96-well plate based on positive (4 wells) and negative controls (4 wells).

The mark [2] stands for this setting: Trypanosoma cruzi, TULAHUEN, Fibroblast, 10 uM, Table S2.
Setting [3] is: Trypanosoma cruzi, TULAHUEN, Fibroblast.

Turning to `COC(=O)CC1C(C)(C)C(OC(C)=O)C2C(OC(C)=O)C34OC2(O)C1(C)C3CCC1(C)C4=CC(=O)OC1c1ccoc1` (stereo not shown) [[…], methyl 2-[14,18-bis(acetyloxy)-6-(furan-3-yl)-16-hydroxy-7,11,13,13-tetramethyl-4-oxo-5,17-dioxapentacyclo[13.2.1.0^{1,10}.0^{2,7}.0^{11,16}]octadec-2-en-12-yl]acetate], the activity at 10 µM in the assay with 3T3 fibroblast cells (10 uM, Table S2) is 89.7%; in assay [1] (setting [2]), 7.2%.
For `CC(Cc1cccc(C(F)(F)F)c1)NCCOC(=O)c1ccccc1` (stereo not shown) [BENFLUOREX, 2-({1-[3-(trifluoromethyl)phenyl]propan-2-yl}amino)ethyl benzoate] the same measures were 96.6% and 21.6%.
Turning to `Oc1ccc(O)cc1` [HYDROQUINONE, benzene-1,4-diol], the activity at 10 µM with 3T3 fibroblast cells stood at 93.9%; in assay [1] (setting [3]), 22.6%.
On to `CCOc1ccc(Cc2nccc3cc(OCC)c(OCC)cc23)cc1OCC` [ETHAVERINE, 1-[(3,4-diethoxyphenyl)methyl]-6,7-diethoxyisoquinoline], for which the activity at 10 µM in the assay with 3T3 fibroblast cells (10 uM, Table S2) came out at 95.1%; in assay [1] (setting [2]), 3.7%.
For `O=c1[nH]c(=O)n(C2CC(O)C(CO)O2)cc1F` (stereo not shown) [FLOXURIDINE, 5-fluoro-1-[4-hydroxy-5-(hydroxymethyl)oxolan-2-yl]-1,2,3,4-tetrahydropyrimidine-2,4-dione] the same measures were 86.2% and 2.6%.
Take `NCC(=O)c1ccccc1` [PHENACYLAMINE, 2-amino-1-phenylethan-1-one hydrochloride]: the activity at 10 µM in the assay on 3T3 fibroblast cells (10 uM, Table S2) turned out to be 85.5%; in assay [1] (setting [2]), 4.8%.
For `CCCCCCCCCCCCCC(=O)O[C@@H]1[C@@H](C)[C@@]2(O)[C@@H](C=C(CO)C[C@]3(O)C(=O)C(C)=C[C@@H]23)[C@@H]2C(C)(C)[C@]12OC(C)=O` [PHORBOL MYRISTATE ACETATE, (1S,2S,6R,10S,11R,13S,14R,15R)-13-(acetyloxy)-1,6-dihydroxy-8-(hydroxymethyl)-4,12,12,15-tetramethyl-5-oxotetracyclo[8.5.0.0^{2,6}.0^{11,13}]pentadeca-3,8-dien-14-yl tetradecanoate] the same measures were 89.2% and 5.6%.
As for `NC(=O)c1cc([N+](=O)[O-])cc([N+](=O)[O-])c1` [NITROMIDE, 3,5-dinitrobenzamide], the “Mammalian (3T3) cell % growth at 10 uM” value in the assay with 3T3 fibroblast cells (10 uM, Table S2) is 97.2%. Further, the “T. cruzi % growth @ 10 uM (Amastigotes)” value in assay [1] (10 uM, Table S2) is 1.9%. In addition, in assay [1] (Table S2, amastigotes), the EC50 – broadly, the concentration giving half of the maximal effect – was determined as 4.8 µM.
With `COc1ccc(Cc2nccc3cc(OC)c(OC)cc23)cc1OC` [PAPAVERINE, 1-[(3,4-dimethoxyphenyl)methyl]-6,7-dimethoxyisoquinoline hydrochloride], the activity at 10 µM amounted to 93.1% in the assay with 3T3 fibroblast cells (10 uM, Table S2) and 8.4% in assay [1] (setting [2]).
For `O=c1c(O)c(-c2ccccc2)oc2cccc(O)c12` [3,5-DIHYDROXYFLAVONE] the same measures were 99.6% and 12.3%.
As for `O=c1c(O)c(-c2ccccc2)oc2ccccc12` [3-HYDROXYFLAVONE, 3-hydroxy-2-phenyl-4H-chromen-4-one], the activity at 10 µM in the assay with 3T3 fibroblast cells (10 uM, Table S2) was found to be 85.7%; in assay [1] (setting [2]) it was 4.1%.
For `c1ccc(-c2ccc(C(c3ccccc3)n3ccnc3)cc2)cc1` (stereo not shown) [BIFONAZOLE, 1-[phenyl(4-phenylphenyl)methyl]-1H-imidazole], in that order: 93.6% and 0.7%.
For `COc1ccc(C(=O)c2ccc(O)cc2)c(O)c1O` [2,3,4'-TRIHYDROXY-4-METHOXYBENZOPHENONE] the same measures were 86.8% and 3.6%.
Regarding `COC(=O)CCC(C)C1CCC2C3C(O)CC4CC(O)CCC4(C)C3CC(O)C12C` (stereo not shown) [CHOLIC ACID, METHYL ESTER, methyl 4-{5,9,16-trihydroxy-2,15-dimethyltetracyclo[8.7.0.0^{2,7}.0^{11,15}]heptadecan-14-yl}pentanoate], the activity at 10 µM in the assay on 3T3 fibroblast cells (10 uM, Table S2) turned out to be 81%; in assay [1] (setting [2]) it was 22.6%.
For `COc1c2c(cc3occ(-c4ccc5c(c4)OCO5)c(=O)c13)OC(C)(C)C=C2` [METHYL ROBUSTONE, 3-(2H-1,3-benzodioxol-5-yl)-5-methoxy-8,8-dimethyl-4H,8H-pyrano[3,2-g]chromen-4-one] the same measures were 68.2% and 2.5%.
Regarding `COC(=O)C1=C(C)NC(C)=C(C(=O)OCCN(C)Cc2ccccc2)C1c1cccc([N+](=O)[O-])c1` (stereo not shown) [NICARDIPINE, 3-{2-[benzyl(methyl)amino]ethyl} 5-methyl 2,6-dimethyl-4-(3-nitrophenyl)-1,4-dihydropyridine-3,5-dicarboxylate], the activity at 10 µM worked out at 99.8% in the assay with 3T3 fibroblast cells (10 uM, Table S2) and 2% in assay [1] (setting [2]). The EC50 in assay [1] (Trypanosoma cruzi, TULAHUEN, Fibroblast, Table S2, amastigotes) worked out at 5.85 µM; in assay [1] (setting [3]), 5.9 µM.
In the case of `CC(C1OC(C)(C)C(O)C1O)C1CCC2(C)C3=CCC4C(C)(C)C(=O)CCC4(C)C3CCC12C` (stereo not shown) [ODORATONE, 14-[1-(3,4-dihydroxy-5,5-dimethyloxolan-2-yl)ethyl]-2,6,6,11,15-pentamethyltetracyclo[8.7.0.0^{2,7}.0^{11,15}]heptadec-9-en-5-one], the activity at 10 µM in the assay on 3T3 fibroblast cells (10 uM, Table S2) was 92.7%; in assay [1] (setting [2]), 9.9%.
Turning to `CNc1ccccc1C(=O)N1CCc2c([nH]c3ccccc23)C1=O` [RHETSININE, 2-{[2-(methylamino)phenyl]carbonyl}-1H,2H,3H,4H,9H-pyrido[3,4-b]indol-1-one], the activity at 10 µM in the assay with 3T3 fibroblast cells (10 uM, Table S2) was found to be 75.7%; in assay [1] (setting [2]), 5.9%.
For `C=CC(C)(O)CCC1C(=C)CCC2C(C)(CO)CCCC12C` (stereo not drawn) [EPI(13)TORULOSOL, 5-[5-(hydroxymethyl)-5,8a-dimethyl-2-methylidene-decahydronaphthalen-1-yl]-3-methylpent-1-en-3-ol] the same measures were 86.1% and 14.5%.
For `COc1ccc2cc3[n+](cc2c1OC)CCc1cc2c(cc1-3)OCO2` [BERBERINE, 16,17-dimethoxy-5,7-dioxa-13$l^5-azapentacyclo[11.8.0.0^{2,10}.0^{4,8}.0^{15,20}]henicosa-1(21),2,4(8),9,13,15,17,19-octaen-13-ylium] the same measures were 75.8% and 4.1%.
For the compound `O=c1c(O)c(-c2ccc(O)c(O)c2)oc2c(OC3OC(CO)C(O)C(O)C3O)c(O)cc(O)c12` (stereo not shown) [GOSSYPIN, 2-(3,4-dihydroxyphenyl)-3,5,7-trihydroxy-8-{[3,4,5-trihydroxy-6-(hydroxymethyl)oxan-2-yl]oxy}-4H-chromen-4-one], the activity at 10 µM with 3T3 fibroblast cells (10 uM, Table S2) was 100%; in assay [1] (setting [2]), 17.7%.
For `CC1(C)C(=O)C2OC2C2(C)C1CC(O)C1(C)C2CCC2(C)C(c3ccoc3)OC(=O)C3OC321` (stereo not drawn) [1,2alpha-EPOXYDEACETOXYDIHYDROGEDUNIN, 7-(furan-3-yl)-20-hydroxy-1,8,12,17,17-pentamethyl-3,6,14-trioxahexacyclo[9.9.0.0^{2,4}.0^{2,8}.0^{12,18}.0^{13,15}]icosane-5,16-dione], in that order: 77.3% and 7.8%.
For `CCN(CCCCOC(=O)c1ccc(OC)c(OC)c1)C(C)Cc1ccc(OC)cc1` (stereo not shown) [MEBEVERINE, 4-{ethyl[1-(4-methoxyphenyl)propan-2-yl]amino}butyl 3,4-dimethoxybenzoate], the activity at 10 µM worked out at 92.3% in the assay with 3T3 fibroblast cells (10 uM, Table S2) and 4.1% in assay [1] (setting [2]).
